Results: patent US6358975B1, “Method of using selective parp inhibitors to prevent or treat neurotoxicity” (Johns Hopkins University, priority 1997, dated 2002)
Where two headings read alike, the source gives them in different places.

How the values were obtained:
[1] = system: infarct size in the heart; conditions: rabbits, cited from earlier work
[2] = system: NMDA- or NO-induced neurotoxicity in primary cortical cell cultures; experiment: Attenuation of NMDA- and NO (SNP)-induced neurotoxicity in primary cortical cell cultures (Example 1, FIG. 1); assay type: cell-based, mice; conditions: for EC50: Mus musculus, read-out: protection against NMDA- or NO-induced neurotoxicity, EC50 (50% of maximal protection)
Procedure: Primary cortical cell cultures were prepared from gestational, 16-day fetal mice in a procedure modified from the described in Dawson et al., “Resistance to Neurotoxicity in Cortical Cultures from Neuronal Nitric Oxide Synthase Deficient Mice”, J. Neurosci., 16:2479-87 (1996), the disclosure of which is hereby incorporated by reference. Specifically, the cortex was dissected, and the cortical cells were dissociated by a 30-minute digestion in 0.027% trypsin/saline solution (commercially available from Gibco BRL, Gaithersburg, Md.), followed by trituration in modified Eagle's medium (MEM), 20% horse serum, 25 mM glucose and 2 mM L-glutamine.
The cells were plated on 15 mm multi-well plates coated with polyornithine. Four days after plating, the cells were treated with 5-fluoro-2-deoxyuridine for three days to inhibit the proliferation of non-neuronal cells. The cells were then maintained in MEM, 10% horse serum, 25 mM glucose, and 2 mM L-glutamine in an 8% CO2, humidified 37° C. incubator. The growth medium was refreshed twice per week, and the neurons were allowed to mature for 14 days in culture before being used for experiments.
Before treatment, these critical cultures were washed with Tris buffered control salt solution (CSS) containing 120 mM NaCl, 5.4 mM KCl, 1.8 mM CaCl2, 25 mM Tris-HCl (pH 7.4) and 15 mM glucose. The washed cells were treated with NMDA or the NO-donor sodium nitroprusside (SNP) for five minutes and then washed again. The cells were then placed in growth media and returned to the incubator overnight.
Each data point represented the mean ± standard error of the mean (SEM) (n=8) of at least two separate experiments and reflected a minimum of 16,000 neurons counted.

[3] = system: NMDA toxicity in cerebral cortical cultures; experiment: NMDA toxicity in cortical cultures from wild-type, PARP+/− and PARP−/− mice (FIG. 2B); assay type: cell-based; conditions: for effect on NMDA toxicity in wild-type and PARP+/− cultures / effect on NMDA toxicity in PARP−/− cultures: 500 μM NMDA, BZD 500 μM, DPQ 10 μM; for effect on NMDA toxicity in wild-type and PARP+/− cultures: five minutes, MK801 1 μM, NArg 100 μM; for effect on NMDA toxicity in PARP−/− cultures: L-Arg 1 mM
Procedure: (§1) Mice were obtained having a targeted disruption of the PARP gene (PARP−/−), generated by the method of Wang et al., “Mice Lacking ADPRT and poly(ADP-ribosyl)ation Develop Normally But Are Susceptible to Skin Disease”, Genes Dev., 9:509-20 (1995), which is hereby incorporated by reference. The toxicity in cortical cultures elicited by a five-minute exposure to 500 μM NMDA, by 60 minutes of oxygen and glucose deprivation (OGD), and by NO-donors was evaluated, comparing cultures or cerebral cortical cells from wild-type and PARP−/− mice, as shown in FIG. 2A.
(§2) Toxicity was assayed 20-24 hours after exposure to cytotoxic conditions by microscopic examination with computer-assisted cell counting, following staining of all nuclei with 1 μg/ml Hoescht 33342 and staining of dead cell nuclei with 7 μg/ml propidium iodide. All reagents were purchased from Sigma Chemicals, St. Louis, Mo.
(§3) Both total and dead cells were counted. Glial nuclei fluoresce at a different intensity than neuronal nuclei and were gated out. The percentage of cell death was determined as the […], as compared to the percentage of cell death in control wells to account for cell death due to mechanical stimulation of the cultures. At least two separate experiments using four separate wells were performed. The results are shown in FIG. 2A, with a minimum of 15,000-20,000 neurons counted per data point, which represented the mean ± standard error of the mean (SEM)(n=8).

[4] = system: toxicity elicited by the NO-donor SNP in cortical cultures; experiment: SNP (NO-donor) toxicity in cortical cultures from wild-type, PARP+/− and PARP−/− mice; assay type: cell-based
Procedure: as §1, §2
Both total and dead cells were counted. Glial nuclei fluoresce at a different intensity than neuronal nuclei and were gated out. The percentage of cell death was determined as the […], as compared to the percentage of cell death in control wells to account for cell death due to mechanical stimulation of the cultures. […] The results are shown in FIG. 2A, with a minimum of 15,000-20,000 neurons counted per data point, which represented the mean ± standard error of the mean (SEM)(n=8).

[5] = system: OGD toxicity in cortical cultures; experiment: Oxygen-glucose deprivation (OGD) toxicity in cortical cultures (FIG. 2C); assay type: cell-based, mice; conditions: 60 minutes OGD, MK801 10 μM, NArg 100 μM, L-arginine 1 mM, benzamide 500 μM; for effect on OGD toxicity in wild-type and PARP+/− cultures: DPQ 10 μM
Procedure: See Dawson et al., “Resistance to Neurotoxicity in Cortical Cultures from Neuronal Nitric Oxide Synthase Deficient Mice”, J. Neurosci., 16:2479-87 (1996), the disclosure of which is hereby incorporated by reference. Combined OGD was performed as described in Kaku et al., “Antagonism by non-NMDA Receptors Augments the Neuroprotective Effect of NMDA Receptor Blockage in Cortical Cultures Subjected to Prolonged Deprivation of Oxygen and Glucose”, Brain Res., 554:344-47 (1991) and/or Monyer et al., “Oxygen or Glucose Deprivation-induced Neuronal Injury in Cortical Cell Cultures is Reduced by Tetanus Toxin, Neuron, 8:967-73 (1992), both of which are hereby incorporated by reference.
Specifically, the culture media was completely exchanged with deoxygenated, glucose-free Earle's balanced salt solution (EBSS) containing: 116 mM NaCl, 5.4 mM KCl, 0.8 mM MgSO4, 1 mM NaH2PO4, and 0.9 mM CaCl2, bubbled with 5% H2/85% N2/5% CO2. The cultures were kept in a 37° C., anaerobic chamber for 60 minutes containing the gas mixture 5% H2/85% N2/5% CO2. Combined oxygen-glucose deprivation was terminated by removal of the cultures from the chamber and replacement of the EBSS solution with oxygenated growth media. The cultures were returned to a humidified incubator containing 5% CO2 and atmospheric oxygen at 37° C. overnight.
as §2, §3

[6] = molecular target: poly(ADP-ribose) polymerase; conditions: read-out: IC50 for inhibiting PARP; reported by Suto et al.; cited from earlier work
PARP = molecular target: T1, PARP (Mus musculus, UniProt P11103); experiment: PARP catalytic (self-modification) assay, mouse brain nuclear fraction; assay type: biochemical; conditions: benzamide treatment
T1 construct: from tissue; host or cells: mouse brain (forebrain) nuclear fraction, wild-type 129/SV

[7] = system: NMDA toxicity in cerebral cortical cultures; conditions: concentration of 100 μM; Zhang et al. 1994; cited from earlier work

T1 sequence (P11103 whole entry): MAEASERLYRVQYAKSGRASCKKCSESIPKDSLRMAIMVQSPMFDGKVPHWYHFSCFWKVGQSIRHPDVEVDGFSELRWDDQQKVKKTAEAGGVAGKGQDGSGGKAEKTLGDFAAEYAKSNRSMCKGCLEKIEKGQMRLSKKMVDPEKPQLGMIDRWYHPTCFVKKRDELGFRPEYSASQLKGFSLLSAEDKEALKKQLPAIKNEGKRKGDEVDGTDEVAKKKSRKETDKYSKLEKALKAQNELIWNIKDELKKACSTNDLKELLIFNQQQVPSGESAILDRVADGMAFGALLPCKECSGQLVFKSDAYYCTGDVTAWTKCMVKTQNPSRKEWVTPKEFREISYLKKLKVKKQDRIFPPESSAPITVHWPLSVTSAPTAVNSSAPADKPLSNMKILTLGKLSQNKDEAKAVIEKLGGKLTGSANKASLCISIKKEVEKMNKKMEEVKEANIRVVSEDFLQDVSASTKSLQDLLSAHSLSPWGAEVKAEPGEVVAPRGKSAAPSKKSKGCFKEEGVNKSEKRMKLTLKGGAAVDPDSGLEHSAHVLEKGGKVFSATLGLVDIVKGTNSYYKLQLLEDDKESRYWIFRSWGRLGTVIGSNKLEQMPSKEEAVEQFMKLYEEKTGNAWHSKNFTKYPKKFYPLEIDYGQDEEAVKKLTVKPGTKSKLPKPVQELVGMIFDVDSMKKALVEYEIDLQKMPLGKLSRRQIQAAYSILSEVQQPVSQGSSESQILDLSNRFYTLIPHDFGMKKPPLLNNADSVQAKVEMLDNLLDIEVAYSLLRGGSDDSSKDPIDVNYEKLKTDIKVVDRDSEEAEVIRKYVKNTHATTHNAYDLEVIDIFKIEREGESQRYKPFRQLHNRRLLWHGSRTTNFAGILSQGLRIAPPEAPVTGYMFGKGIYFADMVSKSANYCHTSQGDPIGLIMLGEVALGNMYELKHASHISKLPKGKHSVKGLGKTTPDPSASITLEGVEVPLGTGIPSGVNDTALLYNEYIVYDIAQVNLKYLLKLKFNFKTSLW

SMILES	effect on NMDA toxicity in wild-type and PARP+/− cultures [3]	effect on NMDA toxicity in PARP−/− cultures [3]	effect on OGD toxicity in wild-type and PARP+/− cultures [5]	effect on OGD toxicity in PARP−/− cultures [5]	other results
Oc1cccc2c(O)nccc12 [1,5-dihydroxyisoquinoline]	–	–	–	–	reduction in infarct size ([1]; 1 mg/kg): 38-48%
NC(=O)c1cccc(N)c1 [3-aminobenzamide]	–	–	–	–	reduction in infarct size in the heart ([1]; single injection 10 mg/kg one minute before occlusion or one minute before reperfusion): 32-42%
O=C1NCCc2c(OCCCCN3CCCCC3)cccc21 [DPQ, 3,4-dihydro-5-[4-(1-piperidinyl)-butoxy]-1(2H)-isoquinolinone]	significantly greater reduction of NMDA toxicity than benzamide	no significant effects	abolished OGD toxicity	–	potency relative to benzamide ([2]; DPQ vs benzamide): 500 times; EC50 ([2]; five-minute exposure to 500 μM NMDA or 500 μM SNP): 200 nM; effect on neurotoxicity at 10-100 μM ([2]; concentrations of 10-100 μM): virtually abolished neurotoxicity; effect on SNP toxicity in PARP−/− cultures [4]: no effect; effect on SNP toxicity in wild-type and PARP+/− cultures ([4]; not shown in FIG. 2): reduced the toxicity; IC50 [6]: 40 nM
N=C(N)NCCC[C@H](N)C(=O)O [L-arginine]	–	no significant effect	reversed the nitroarginine protection	not in PARP−/− cultures	reversal of nitroarginine neuroprotection against NMDA toxicity in wild-type cultures ([3]; L-Arg 1 mM with NArg 100 μM): reversed the neuroprotective effect of nitroarginine
C[C@]12N[C@H](Cc3ccccc31)c1ccccc12 [MK801]	abolished NMDA toxicity	–	profoundly reduced toxicity	no differential effects	–
NC(=O)c1ccccc1 [benzamide]	reduced NMDA toxicity	no significant effect	reduced OGD toxicity	no influence	reduction of neurotoxicity at the maximally effective concentration ([2]; 500 μM NMDA or 500 μM SNP, maximally effective concentration): 65%; EC50 [2]: ~100000 nM; other ribosylated nuclear proteins (gray background) in wild-type catalytic assay (PARP): reduced; protection against NMDA neurotoxicity [7]: ~50%
